In one data set the test system is HCC xenografts. Nature of the data set: In vivo antitumor assay, HCC xenografts. The settings on record: for tumor suppression (inhibition rate, tumor weight): tail vein, once every day for 7 days. The text has this:
Healthy BALB/c mice (Cat. SCXK 2016-0006, Beijing, China) aged 5 weeks were used for the determination of anticancer activity. We obtained BALB/c mice from the Laboratory Animal Center, Academy of Military Medical Science. They were raised in compliance with the Guide for the Care and Use of Laboratory Animals. The weight of healthy BALB/c mice is 18–22 g.
We firstly injected HCC cells with 1 × 10^6 cells per mouse to determine the anticancer activity. After a week, the tumors increased to 80–120 mm^3. The mice were divided into four groups for 5c (3 mg/kg), 5c (5 mg/kg), the positive control amonafide (5 mg/kg), or the negative control physiological saline. We injected 5c or amonafide via the tail vein every day for a total of seven treatments. Body weight was determined every day. And then the mice were sacrificed after 7 days. The tumor tissues were weighed and the inhibition rate [((average tumor weight of negative control group – average tumor weight of the drug treated or positive control group)/average tumor weight of control group) × 100] was calculated. The organ index [(organ weight/body weight) × 100%] was also counted including heart, liver, kidney, lung, and spleen at the last day. Both 5c and amonafide were dissolved in glucose injection. And they were used immediately after preparation.
The highest FI levels in Snu-739 also indicate a significant therapy for HCC. Therefore, HCC animal models were used to test the in vivo antitumor activities. Mice bearing HCC xenografts were treated with 5c (3 mg/kg), 5c (5 mg/kg), the positive control amonafide (5 mg/kg), and normal saline (negative control) once every day for 7 days by tail vein (Figure 3).

For data set [1], the system named is six cancer cell lines (Snu-368, Snu-739, MCF-7, MDA-MB-231, A549, A549cisR). Nature of the data set: MTT cytotoxicity assay, whole panel. The class given is cell-based. The following applies: versus amonafide and cisplatin. How it is done:
We incubated hepatic carcinoma (Snu-368 and Snu-739), breast carcinoma (MDA-MB-231 and MCF-7), cisplatin-sensitive lung cancer cells A549, and cisplatin-resistant lung cancer cells A549cisR in 96-well plates in a 5% CO2 atmosphere at 37°C for 24 h (5,000 cells/well). After adding drugs in freshly prepared culture medium (100 μl) and incubating for another 48 h, we added 20 μl MTT (5 mg/ml) and incubated for another 3 h. At last, after the medium was removed, 150 μl DMSO was added. By using a Bio-Rad 680 microplate reader, the absorbance was measured at 570 nm and the IC50 values were calculated using the GraphPad Prism software based on three parallel experiments.
In vitro assays were firstly conducted to evaluate the inhibitory effect of polyamine-based naphthalimide conjugates 5a-5c, 7a-7b, and 11a-11b on six cancer cell lines, namely, Snu-368 and Sun-739 (hepatoma cell line), MCF-7 (breast carcinoma), MDA-MB-231 (triple negative breast cancer), cisplatin-sensitive lung cancer A549, and resistant A549cisR cells by using traditional MTT tests. Two classic antitumor agents in clinic trials, amonafide and cisplatin, were chosen as the reference drugs (Table 1). The preliminary structure–activity relationship (SAR) can be obtained from the in vitro biological results.
For orientation: Tetrazolium dyes change colour on reduction, which living cells bring about.

Molecules are shown by their SMILES.

`O=C1c2cc([N+](=O)[O-])cc3cc([N+](=O)[O-])cc(c23)C(=O)N1CCCCNCCCNC1CC1` [5c]: the “tumor suppression (inhibition rate, tumor weight)” value with HCC xenografts (3 mg/kg) was found to be 57.97%; in the data set with HCC xenografts (5 mg/kg), 65.90%. This molecule also registered an average tumor volume in the data set on HCC xenografts (day 7, control group 900 mm^3, dose not stated) of 480 mm^3. In addition, the “organ weight indexes / toxicological profile in vivo” value with HCC xenografts (heart, liver, kidney, lung, spleen, end of experiment) is “no obvious pathological changes”. Moreover, the “FI (fold increase), range over cell lines” value in data set [1] is listed as 3.59–48.63.

(Values after PMC7160362, “A Polyamine-Based Dinitro-Naphthalimide Conjugate as Substrates for Polyamine Transporters Preferentially Accumulates in Cancer Cells and Minimizes Side Effects in vitro and in vivo” (Frontiers in Chemistry, 2020).)
